Where only a bound is given, the exact number is not on record here.

The nature of series [1]: Half life at 1 uM in the presence of 100 uM reduced glutathione in H2O-Acetonitrile (1:1). The format is ADME. Conditions: reduced glutathione solution in H2O-acetonitrile (1:1).
The nature of series [2]: Half life at 10 uM in the presence of 100 uM reduced glutathione in H2O-Acetonitrile (1:1). The format is ADME. The following applies: reduced glutathione solution in H2O-acetonitrile (1:1).
Series [3] addresses T1, Vascular endothelial growth factor receptor 2 (Homo sapiens, UniProt P35968). The experiment in a line: Inhibition of poly(Glu4-Tyr)peptide phosphorylation by recombinant VEGFR2 at 10 uM ATP and in presence of 5% mouse plasma. The class given is cell-free.
Series [4] concerns the target T1, Vascular endothelial growth factor receptor 2. The experiment in a line: Inhibition of poly(Glu4-Tyr)peptide phosphorylation by recombinant VEGFR2 at 10 uM ATP.
The target is the same in series [5]. The experiment in a line: Inhibition of poly(Glu4-Tyr)peptide phosphorylation by recombinant VEGFR2 at 10 uM ATP and in presence of 100 uM glutathione.
The target is the same in series [6]. In words: Inhibitory activity against VEGF stimulated autophosphorylation of VEGFR2 expressed in KDR15 cells. The class given is cell-based.

T1 sequence (P35968 whole entry): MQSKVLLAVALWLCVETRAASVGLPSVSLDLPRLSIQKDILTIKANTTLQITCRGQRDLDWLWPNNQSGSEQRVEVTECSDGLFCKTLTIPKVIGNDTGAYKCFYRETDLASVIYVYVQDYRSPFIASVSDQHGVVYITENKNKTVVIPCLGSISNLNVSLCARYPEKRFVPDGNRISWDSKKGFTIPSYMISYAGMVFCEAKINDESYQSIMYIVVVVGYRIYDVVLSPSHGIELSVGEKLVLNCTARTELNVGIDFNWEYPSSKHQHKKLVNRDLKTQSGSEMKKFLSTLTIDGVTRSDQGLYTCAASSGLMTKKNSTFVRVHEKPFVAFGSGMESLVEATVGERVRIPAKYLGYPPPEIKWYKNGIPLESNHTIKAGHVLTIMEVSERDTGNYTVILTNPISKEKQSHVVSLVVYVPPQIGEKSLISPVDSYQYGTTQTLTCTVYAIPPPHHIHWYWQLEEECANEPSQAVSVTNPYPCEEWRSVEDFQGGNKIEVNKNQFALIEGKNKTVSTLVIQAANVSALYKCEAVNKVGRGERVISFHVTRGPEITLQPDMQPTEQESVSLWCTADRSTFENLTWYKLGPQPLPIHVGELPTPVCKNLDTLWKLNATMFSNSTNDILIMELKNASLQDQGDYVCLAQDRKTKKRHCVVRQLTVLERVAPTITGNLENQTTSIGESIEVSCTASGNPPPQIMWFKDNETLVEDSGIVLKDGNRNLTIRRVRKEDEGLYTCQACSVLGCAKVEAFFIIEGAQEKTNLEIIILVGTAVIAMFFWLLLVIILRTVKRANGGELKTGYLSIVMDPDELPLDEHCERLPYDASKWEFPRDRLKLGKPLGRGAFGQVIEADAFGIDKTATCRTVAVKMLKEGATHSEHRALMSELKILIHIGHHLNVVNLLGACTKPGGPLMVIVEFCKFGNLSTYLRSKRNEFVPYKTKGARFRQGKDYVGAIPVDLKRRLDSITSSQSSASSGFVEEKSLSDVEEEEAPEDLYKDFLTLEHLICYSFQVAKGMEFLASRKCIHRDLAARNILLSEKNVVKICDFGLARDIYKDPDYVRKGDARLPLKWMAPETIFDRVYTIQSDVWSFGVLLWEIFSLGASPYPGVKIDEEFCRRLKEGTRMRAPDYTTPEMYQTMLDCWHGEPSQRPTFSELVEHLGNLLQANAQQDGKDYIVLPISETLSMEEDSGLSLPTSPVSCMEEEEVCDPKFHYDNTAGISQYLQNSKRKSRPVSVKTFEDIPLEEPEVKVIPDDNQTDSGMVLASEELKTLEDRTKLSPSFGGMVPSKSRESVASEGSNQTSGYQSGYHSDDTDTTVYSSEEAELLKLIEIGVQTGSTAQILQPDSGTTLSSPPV

In the case of `COCCOc1cc2ncnc(NC3=CC(=O)C(N(C)C)=CC3=O)c2cc1OC`, the half-life (commonly how long it takes for the measured level to halve) at 1 µM in series [1] was 160 h. The half-life at 10 µM in series [2] was 601 h.

Turning to `COCCOc1cc2ncnc(NC3=CC(=O)C(OC(CF)CF)=CC3=O)c2cc1OC`, the half-life at 1 µM in series [1] is 11 h. For the same molecule, the half-life at 10 µM in series [2] is 15 h.

Consider `COCCOc1cc2ncnc(NC3=CC(=O)C(NCC(C)O)=CC3=O)c2cc1OC` (configuration not stated), for which the IC50 in series [3], in series [4] and in series [5] was more than 1000 nM in each case.

On to `COCCOc1cc2ncnc(NC3=CC(=O)C(Oc4ccc(-n5ccnc5)cc4)=CC3=O)c2cc1OC`, for which, in series [1], the half-life at 1 µM is less than 0.02 h. The half-life at 10 µM in series [2] was less than 0.02 h.

Regarding `COCCOc1cc2ncnc(NC3=CC(=O)C(OC)=C(Cl)C3=O)c2cc1OC`, in series [1], the half-life at 1 µM is less than 0.5 h. The half-life at 10 µM in series [2] is 0.5 h.

For the molecule `COCCOc1cc2ncnc(NC3=CC(=O)C(N(C)c4ccccc4)=CC3=O)c2cc1OC`, in series [1], the half-life at 1 µM is 341 h. Moreover, the half-life at 10 µM in series [2] is 295 h.

For `CCOC1=CC(=O)C(Nc2ncnc3cc(OCCOC)c(OC)cc23)=CC1=O`, in series [1], the half-life at 1 µM was 62 h. Also, the half-inhibitory concentration (IC50) in series [3], in series [6], in series [4] and in series [5] was more than 1000 nM each time. For the same molecule, the half-life at 10 µM in series [2] was 72 h.

With `COCCOc1cc2ncnc(NC3=C(Sc4ccccn4)C(=O)C=C(OC)C3=O)c2cc1OC`, the IC50 in series [3], in series [4] and in series [5] was more than 1000 nM each time.

In the case of `COCCOc1cc2ncnc(NC3=CC(=O)C(OCc4cccc(F)c4)=CC3=O)c2cc1OC`, the results for the IC50 in series [3], in series [4] and in series [5] were 256 nM, 31.2 nM and 41.9 nM, respectively.

Take `COCCOc1cc2ncnc(NC3=CC(=O)C(SC)=CC3=O)c2cc1OC`: in series [1], the half-life at 1 µM was 2 h. Further, in series [2], the half-life at 10 µM is 3 h.

For the molecule `COCCOc1cc2ncnc(NC3=CC(=O)C(Cl)=CC3=O)c2cc1OC`, the half-life at 1 µM in series [1] is less than 0.02 h. The half-life at 10 µM in series [2] is less than 0.02 h.

Consider `COCCOc1cc2ncnc(NC3=CC(=O)C(Oc4ccccc4)=CC3=O)c2cc1OC`, for which, in series [1], the half-life at 1 µM was less than 0.02 h. Moreover, the half-life at 10 µM in series [2] is less than 0.02 h.

On to `COCCOc1cc2ncnc(NC3=CC(=O)C(OC)=CC3=O)c2cc1OC`, for which the half-life at 1 µM in series [1] was 68 h. In addition, the half-life at 10 µM in series [2] was 80 h.

Consider `COCCOc1cc2ncnc(NC3=CC(=O)C(N4CCN(Cc5ccccc5)CC4)=CC3=O)c2cc1OC`, for which, in series [1], the half-life at 1 µM was 73 h. Further, the half-life at 10 µM in series [2] was 85 h.

For `COCCOc1cc2ncnc(NC3=CC(=O)C(OC(C)C)=CC3=O)c2cc1OC`, the half-life at 1 µM in series [1] is 213 h. Moreover, the half-life at 10 µM in series [2] was 227 h.

`COCCOc1cc2ncnc(NC3=CC(=O)C(OCc4ccccc4)=CC3=O)c2cc1OC`: the half-life at 1 µM in series [1] is 55 h. For the same molecule, the IC50 (commonly the concentration that gives 50% inhibition) in series [3] amounted to 366 nM; in series [4], 43 nM; in series [5], 50.3 nM. Further, the half-life at 10 µM in series [2] was 54 h.

The record behind these values is ChEMBL document CHEMBL1141211, “2-(Quinazolin-4-ylamino)-[1,4]benzoquinones as covalent-binding, irreversible inhibitors of the kinase domain of vascular endothelial growth factor receptor-2” (J Med Chem, 2005).
